# US12565501B2, “Muscarinic acetylcholine M1 receptor antagonists” (Contineum Therapeutics, Inc., priority 2019, dated 2026)
# Target: T1, human M1 receptor (Homo sapiens, UniProt P11229)
# T1 sequence (P11229 1-460): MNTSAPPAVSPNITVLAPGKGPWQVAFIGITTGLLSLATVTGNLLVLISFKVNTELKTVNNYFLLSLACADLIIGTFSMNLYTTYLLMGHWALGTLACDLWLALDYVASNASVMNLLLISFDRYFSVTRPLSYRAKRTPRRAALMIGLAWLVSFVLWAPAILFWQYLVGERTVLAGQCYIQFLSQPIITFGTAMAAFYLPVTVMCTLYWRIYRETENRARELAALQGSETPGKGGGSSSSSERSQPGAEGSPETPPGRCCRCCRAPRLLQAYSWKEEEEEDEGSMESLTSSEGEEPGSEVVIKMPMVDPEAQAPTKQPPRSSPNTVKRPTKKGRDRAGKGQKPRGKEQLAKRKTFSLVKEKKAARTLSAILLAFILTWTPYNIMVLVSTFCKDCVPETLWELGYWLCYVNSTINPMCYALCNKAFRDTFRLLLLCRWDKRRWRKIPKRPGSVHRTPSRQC
# Assay: In vitro functional assay of muscarinic acetylcholine receptor activity (aequorin calcium flux, reversal of EC80 acetylcholine response)
# Format: cell-based
# Details: CHO-K1 cells stably expressing human M1 receptor with aequorin; acetylcholine at EC80; calcium flux (luminescence); read-out: M1 IC50
# Description: CHO-K1 cells stably expressing human M1 receptor with aequorin (Perkin Elmer) were grown in F12 media (Gibco) containing 10% FBS (ATCC), 0.4 mg/mL geneticin (Sigma-Aldrich) and 0.25 mg/mL Zeocin (Invitrogen). Cells were grown as per the manufacturer's protocol. For compound testing, cells were grown to confluency and detached gently with Accutase (Sigma-Aldrich) followed by centrifugation for 5 min at 150× g. Cells were then re-suspended in assay buffer (i.e. DMEM/F-12 HEPES without phenol red (Invitrogen) with 0.1% BSA (Sigma-Aldrich)) at a density of 5×10^6 cells/ml. Under sterile conditions, 5 μM coelenterazine (Invitrogen) was added to the cells, mixed, then incubated at room temperature protected from light, with gentle agitation, for 4 h.
# Primary compound plates were prepared in 100% DMSO in opaque 96-well plates (VWR) and serially diluted in half log increments. Secondary compound plates were prepared at 3× concentration in assay buffer. Compounds were added to white, clear bottom tissue culture treated 96-well plates (Fisher Scientific). Coelenterazine-loaded cells were then added at 5×10^5 cells/well.
# Compounds and cells were incubated at room temperature for 30 min in the dark. Acetylcholine at the EC80 concentration was added and calcium flux measured using a FlexStation 3 (Molecular Devices). Sigmoidal dose-response curves were generated by measuring luminescence over 40 sec and calculating the area under the curve. Dose response curves and IC50 values were generated using Prism (GraphPad). Compounds were tested at a final concentration range of 100 μM to […] in 0.1% DMSO.
row,Compound,IC50 [nM]
1,"Cc1ccc(N2C3CCC2CN(C(=O)CNC2(c4ccc(F)cc4F)CC2)C3)nn1 [Example 86, 2-((1-(2,4-difluorophenyl)cyclopropyl)amino)-1-(8-(6-methylpyridazin-3-yl)-3,8-diazabicyclo[3.2.1]octan-3-yl)ethan-1-one]",1000 to 10000
2,"COc1ncc(F)c(C2(OCC(=O)N3CC4CCC(C3)N4c3ccc(C#N)cn3)CCC2)c1F [Example 272, 6-(3-(2-(1-(3,5-difluoro-2-methoxypyridin-4-yl)cyclobutoxy)acetyl)-3,8-diazabicyclo[3.2.1]octan-8-yl)nicotinonitrile]",10 to 100
3,"N#Cc1ccc(C2(NCCC(=O)N3CC4CCC(C3)N4c3ccc(C#N)cn3)CC2)cc1 [Example 14, 6-(3-(3-((1-(4-cyanophenyl)cyclopropyl)amino)propanoyl)-3,8-diazabicyclo[3.2.1]octan-8-yl)nicotinonitrile]",1000 to 10000
4,"N#Cc1ccc(N2C3CCC2CN(C(=O)COC2(c4ccc(F)c(F)c4)CCOC2)C3)nc1 (racemic) [Example 269, 6-(3-(2-((3-(3,4-difluorophenyl)tetrahydrofuran-3-yl)oxy)acetyl)-3,8-diazabicyclo [3.2.1]octan-8-yl)nicotinonitrile]",100 to 1000
5,"COc1cc(C(F)(F)CCC(=O)N2C[C@@H]3CC[C@H]2CN3c2ccc(C#N)cn2)ccn1 [Example 155, 6-((1S,4S)-5-(4,4-difluoro-4-(2-methoxypyridin-4-yl)butanoyl)-2,5-diazabicyclo[2.2.2]octan-2-yl)nicotinonitrile]",10 to 100
6,"CC(NCCC(=O)N1CC2CCC(C1)N2c1ccc(C#N)cn1)c1ccc(F)cc1 (stereo in doubt) [Example 7, 6-(3-(3-(((S)-1-(4-fluorophenyl)ethyl)amino)propanoyl)-3,8-diazabicyclo[3.2.1]octan-8-yl)nicotinonitrile]",1000 to 10000
7,"C[C@@H](OCC(=O)N1C[C@H]2CC[C@@H](C1)N2c1ccc(C#N)cn1)c1ccccc1 [Example 178, 6-(3-(2-((R)-1-phenylethoxy)acetyl)-3,8-diazabicyclo[3.2.1]octan-8-yl)nicotinonitrile]",100 to 1000
8,"N#Cc1ccc(N2C3CCC2CN(C(=O)CNC2CCc4ccccc42)C3)nc1 (racemic) [Example 89, 6-(3-((2,3-dihydro-1H-inden-1-yl)glycyl)-3,8-diazabicyclo[3.2.1]octan-8-yl)nicotinonitrile]",1000 to 10000
9,"N#Cc1ccc(N2C3CC2CN(C(=O)CNC2(c4ccc(F)cc4F)CC2)C3)nc1 [Example 79, 6-(3-((1-(2,4-difluorophenyl)cyclopropyl)glycyl)-3,6-diazabicyclo[3.1.1]heptan-6-yl)nicotinonitrile]",1000 to 10000
10,"N#Cc1ccc(N2C3CCC2CN(C(=O)CCOC2(c4ccc(F)c(F)c4)CCC2)C3)nc1 [Example 303, 6-(3-(3-(1-(3,4-difluorophenyl)cyclobutoxy)propanoyl)-3,8-diazabicyclo[3.2.1]octan-8-yl)nicotinonitrile]",< 10
11,"N#Cc1ccc(N2C3CCC2CN(C(=O)COC2(c4cccnc4)CCC2)C3)nc1 [Example 245, 6-(3-(2-(1-(pyridin-3-yl)cyclobutoxy)acetyl)-3,8-diazabicyclo[3.2.1]octan-8-yl)nicotinonitrile]",100 to 1000
12,"COc1cc(C(F)(F)CCC(=O)N2CC3CCC(C2)N3c2ccc(C)nn2)ccn1 [Example 157, 4,4-difluoro-4-(2-methoxypyridin-4-yl)-1-(8-(6-methylpyridazin-3-yl)-3,8-diazabicyclo[3.2.1]octan-3-yl)butan-1-one]",100 to 1000
13,"N#Cc1ccc(N2C3CCC2CN(C(=O)COC2(c4ccc(F)cc4C#N)CC2)C3)nc1 [Example 297, 6-(3-(2-(1-(2-cyano-4-fluorophenyl)cyclopropoxy)acetyl)-3,8-diazabicyclo[3.2.1]octan-8-yl)nicotinonitrile]",10 to 100
14,"COc1ccncc1C(F)(F)CCC(=O)N1CC2CCC(C1)N2c1ccc(C#N)cn1 [Example 161, 6-(3-(4,4-difluoro-4-(4-methoxypyridin-3-yl)butanoyl)-3,8-diazabicyclo[3.2.1]octan-8-yl)nicotinonitrile]",< 10
15,"N#Cc1ccc(N2C3CCC2CN(C(=O)/C=C/C(F)(F)c2ccc(F)cc2)C3)nc1 [Example 123, 6-(3-((E)-4,4-difluoro-4-(4-fluorophenyl)but-2-enoyl)-3,8-diazabicyclo[3.2.1]octan-8-yl)nicotinonitrile]",10 to 100
16,"COc1cc(F)ccc1C(C)NCC(=O)N1CC2CCC(C1)N2c1ccc(C#N)cn1 (racemic) [Example 56, 6-(3-((1-(4-fluoro-2-methoxyphenyl)ethyl)glycyl)-3,8-diazabicyclo[3.2.1]octan-8-yl)nicotinonitrile]",< 10
17,"COc1ccc(C2(OCC(=O)N3CC4CCC(C3)N4c3ccc(C#N)cn3)CC2)c(F)c1 [Example 223, 6-(3-(2-(1-(2-fluoro-4-methoxyphenyl)cyclopropoxy)acetyl)-3,8-diazabicyclo[3.2.1]octan-8-yl)nicotinonitrile]",> 1000
18,"CC(OCC(=O)N1CC2CCC(C1)N2c1ccc(C#N)cn1)c1cccc2ncccc12 (racemic) [Example 192, 6-(3-(2-(1-(quinolin-5-yl)ethoxy)acetyl)-3,8-diazabicyclo[3.2.1]octan-8-yl)nicotinonitrile]",< 10
19,"6-(3-(2-(1-(1-methyl-6-oxo-1,6-dihydropyridin-3-yl) cyclopropoxy)acetyl)-3,8-diazabicyclo[3.2.1]octan- 8-yl)nicotinonitrile [Example 301]",100 to 1000
20,"Cn1ccc(C2(OCC(=O)N3CC4CCC(C3)N4c3ccc(C#N)cn3)CCC2)cc1=O [Example 300, 6-(3-(2-(1-(1-methyl-2-oxo-1,2-dihydropyridm-4-yl)cyclobutoxy)acetyl)-3,8-diazabicyclo[3.2.1]octan-8-yl)nicotinonitrile]",10 to 100
21,COc1ccc(C2(NCC(=O)N3CC4CCC(C3)N4c3ccc(C#N)cn3)CC2)cc1F [Example 108],100 to 1000
22,"C[C@H](NCCC(=O)N1C[C@H]2CC[C@@H](C1)N2c1ccc(C#N)cn1)c1ccc(F)c(F)c1 [Example 8, 6-(3-(3-(((S)-1-(3,4-difluorophenyl)ethyl)amino)propanoyl)-3,8-diazabicyclo[3.2.1]octan-8-yl)nicotinonitrile]",100 to 1000
23,"COc1ccc(C2(OCC(=O)N3CC4CCC(C3)N4c3ccc(C#N)cn3)CC2)cc1OC [Example 225, 6-(3-(2-(1-(3,4-dimethoxyphenyl)cyclopropoxy)acetyl)-3,8-diazabicyclo[3.2.1]octan-8-yl)nicotinonitrile]",100 to 1000
24,"N#Cc1ccc(N2C3CCC2CN(C(=O)COC2(c4cncc(O)c4)CCC2)C3)nc1 [Example 313, 6-(3-(2-(1-(5-hydroxypyridin-3-yl)cyclobutoxy)acetyl)-3,8-diazabicyclo[3.2.1]octan-8-yl)nicotinonitrile]",< 10
25,"CC1c2ccccc2CCN1CC(=O)N1CC2CCC(C1)N2c1ccc(C#N)cn1 (racemic) [Example 106, 6-(3-(2-(1-methyl-3,4-dihydroisoquinolin-2(1H)-yl)acetyl)-3,8-diazabicyclo[3.2.1]octan-8-yl)nicotinonitrile]",100 to 1000
26,"CC(SCC(=O)N1CC2CCC(C1)N2c1ccc(C#N)cn1)c1ccccc1 (racemic) [Example 132, 6-(3-(2-((1-phenylethyl)thio)acetyl)-3,8-diazabicyclo[3.2.1]octan-8-yl)nicotinonitrile]",< 10
27,"N#Cc1ccc(N2[C@@H]3C[C@H]2CN(C(=O)COC2(c4ccc(F)c(F)c4)CC2)C3)nc1 [Example 284, 6-(3-(2-(1-(3,4-difluorophenyl)cyclopropoxy)acetyl)-3,6-diazabicyclo[3.1.1]heptan-6-yl)nicotinonitrile]",1000 to 10000
28,"COc1cc(C2(NCC(=O)N3CC4CCC(C3)N4c3ccc(C#N)cn3)CC2)ccn1 [Example 73, 6-(3-((1-(2-methoxypyridin-4-yl)cyclopropyl)glycyl)-3,8-diazabicyclo[3.2.1]octan-8-yl)nicotinonitrile]",10 to 100
29,"CCC(OCC(=O)N1CC2CCC(C1)N2c1ccc(C#N)cn1)c1cc(F)cc(Br)c1 (racemic) [Example 218, 6-(3-(2-(1-(3-bromo-5-fluorophenyl)propoxy)acetyl)-3,8-diazabicyclo[3.2.1]octan-8-yl)nicotinonitrile]",< 10
30,"CC(NCCC(=O)N1C[C@H]2CC[C@@H](C1)N2c1ccc(C#N)cn1)c1c(F)ccc2nccn12 (mixture of isomers) [Example 53, 6-(3-(3-((1-(6-fluoroimidazo[1,2-a]pyridin-5-yl)ethyl)amino)propanoyl)-3,8-diazabicyclo[3.2.1]octan-8-yl)nicotinonitrile]",10 to 100
